Source: the supplement of paper PMC10307832

How the values were obtained:
Test in all cases: relative viability (nuclei count vs DMSO), 5 days (fraction); higher = more cells survive
Entinostat + Navitoclax = compound: Nc1ccccc1NC(=O)c1ccc(CNC(=O)OCc2cccnc2)cc1 [Entinostat] + CC1(C)CCC(c2ccc(Cl)cc2)=C(CN2CCN(c3ccc(C(=O)NS(=O)(=O)c4ccc(N[C@H](CCN5CCOCC5)CSc5ccccc5)c(S(=O)(=O)C(F)(F)F)c4)cc3)CC2)C1 [Navitoclax] (partner 0.5 µM)
How it was run: (§1)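 A single step with final 0.05% Triton X-100, 1% formaldehyde and 1 ug/ml Hoechst fixed the cells and stained nuclei 5 days after treatment. Lung cancer cell lines in 1536-well plates had been treated by pin tool the day after seeding with one drug alone or a fixed anchor-drug dose plus five library-drug doses (not always all listed) in √10 steps, and nuclei were counted on 4× images. Relative viability is the ratio of nuclei in treated wells to nuclei in vehicle wells, taken as the median of duplicate plates.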

[1] = compound: C1COCCN1C2=NC(=NC3=C2OC4=C3C=CC=N4)C5=CC(=CC=C5)NC(=O)C6=CN=C(C=C6)N + CC(=O)c1c(C)c2cnc(Nc3ccc(N4CCNCC4)cn3)nc2n(C2CCCC2)c1=O [Palbociclib] (partner 0.5 µM)
How it was run: as §1

Entinostat + AZD7762 = compound: Nc1ccccc1NC(=O)c1ccc(CNC(=O)OCc2cccnc2)cc1 [Entinostat] + NC(=O)Nc1cc(-c2cccc(F)c2)sc1C(=O)N[C@H]1CCCNC1 [AZD7762] (partner 0.2 µM)
How it was run: as §1

SGI-1776 + Tozasertib = compound: CN1CCC(CNc2ccc3ncc(-c4cccc(OC(F)(F)F)c4)n3n2)CC1 [SGI-1776] + Cc1cc(Nc2cc(N3CCN(C)CC3)nc(Sc3ccc(NC(=O)C4CC4)cc3)n2)n[nH]1 [Tozasertib] (partner 0.1 µM)
How it was run: as §1

Cell Line	relative viability (Entinostat + Navitoclax; first compound 0.02 µM)	relative viability (Entinostat + Navitoclax; first compound 0.06325 µM)	relative viability (Entinostat + Navitoclax; first compound 0.2 µM)	relative viability (Entinostat + Navitoclax; first compound 0.6325 µM)	relative viability (Entinostat + Navitoclax; first compound 2 µM)	relative viability ([1]; first compound 0.02 µM)	relative viability ([1]; first compound 0.06325 µM)	relative viability ([1]; first compound 0.2 µM)	relative viability ([1]; first compound 0.6325 µM)	relative viability ([1]; first compound 2 µM)	relative viability (Entinostat + AZD7762; first compound 0.02 µM)	relative viability (Entinostat + AZD7762; first compound 0.06325 µM)	relative viability (Entinostat + AZD7762; first compound 0.2 µM)	relative viability (Entinostat + AZD7762; first compound 0.6325 µM)	relative viability (Entinostat + AZD7762; first compound 2 µM)	relative viability (SGI-1776 + Tozasertib; first compound 0.08 µM)	relative viability (SGI-1776 + Tozasertib; first compound 0.8 µM)	relative viability (SGI-1776 + Tozasertib; first compound 2.53 µM)	relative viability (SGI-1776 + Tozasertib; first compound 8 µM)
NCI-H647	0.96	0.995	0.928	0.374	0.0716	0.408	0.433	0.38	0.279	0.25	0.49	0.557	0.55	0.186	0.0556	0.389	0.198	0.175	0.175
NCI-H727	0.443	0.356	0.312	0.177	0.163	0.579	0.592	0.613	0.666	0.77	0.598	0.667	0.624	0.646	0.776	0.669	0.598	0.536	0.472
NCI-H838	1.21	1.27	1.17	0.694	0.296	0.194	0.212	0.195	0.197	0.175	0.993	0.973	0.814	0.917	0.712	0.262	0.265	0.195	0.213
NCI-H1355	0.987	0.946	0.747	0.583	0.444	0.371	0.385	0.423	0.609	0.354	0.634	0.789	0.618	0.546	0.369	0.591	0.408	0.305	0.217
NCI-H1395	1.12	1.25	1.19	0.875	0.794	0.602	0.597	0.617	0.592	0.645	0.39	0.386	0.395	0.373	0.356	0.83	0.817	0.644	0.39
NCI-H1437	1.01	0.679	0.432	0.216	0.155	0.3	0.312	0.269	0.295	0.2	1.12	0.947	0.781	0.396	0.369	0.435	0.439	0.344	0.314
NCI-H1651	1.02	1.06	1.09	0.709	0.273	0.51	0.509	0.499	0.495	0.395	0.452	0.48	0.377	0.394	0.245	0.619	0.642	0.31	0.344
NCI-H1666	1.13	1.09	0.861	0.463	0.277	0.627	0.681	0.672	0.622	0.571	1.07	0.918	0.812	0.835	0.519	0.667	0.44	0.406	0.436
NCI-H1734	0.87	0.874	0.86	0.701	0.412	0.413	0.355	0.342	0.33	0.271	0.5	0.476	0.364	0.259	0.244	0.245	0.226	0.246	0.219
NCI-H1755	1.05	0.954	0.806	0.451	0.332	0.418	0.481	0.442	0.426	0.365	0.406	0.486	0.493	0.405	0.355	0.626	0.521	0.452	0.373
NCI-H1793	0.405	0.599	0.405	0.374	0.218	0.306	0.335	0.317	0.218	0.255	0.508	0.643	0.302	0.23	0.302	0.335	0.248	0.252	0.22
NCI-H1915	0.809	0.716	0.813	0.613	0.283	0.516	0.573	0.512	0.613	0.48	0.713	0.694	0.716	0.526	0.286	0.456	0.418	0.33	0.198
NCI-H1944	0.985	0.998	0.938	0.485	0.311	0.354	0.381	0.336	0.304	0.253	0.413	0.463	0.394	0.259	0.238	0.247	0.252	0.253	0.226
NCI-H1975	0.906	0.782	0.751	0.289	0.188	0.589	0.777	0.48	0.455	0.38	0.628	0.612	0.669	0.476	0.395	0.809	0.335	0.169	0.175
NCI-H1993	0.869	0.857	0.789	0.841	0.73	0.683	0.72	0.543	0.632	0.467	0.777	0.741	0.69	0.468	0.366	0.568	0.607	0.57	0.571
NCI-H2085	1	1.06	1.04	0.801	0.604	0.405	0.502	0.455	0.445	0.438	0.965	0.93	0.909	0.683	0.692	0.858	0.617	0.463	0.389
NCI-H2087	0.785	0.853	0.724	0.586	0.337	0.211	0.223	0.235	0.219	0.194	1.22	0.975	1.04	1.03	0.355	0.257	0.198	0.186	0.192
